Ki and IC50 data for seven compounds are collected here from patent US6329400A, “Formamide compounds as therapeutic agents” (Glaxo Wellcome Inc., priority 1998, dated 2001).

Bounds are passed on as bounds.

The target in assay [1] is T1, 19 kD truncated collagenase-1 (MMP-1) (Homo sapiens, UniProt P03956).
T1 construct: 19 kD truncated collagenase-1 (MMP-1)
T1 sequence (P03956 101-269 limits assumed): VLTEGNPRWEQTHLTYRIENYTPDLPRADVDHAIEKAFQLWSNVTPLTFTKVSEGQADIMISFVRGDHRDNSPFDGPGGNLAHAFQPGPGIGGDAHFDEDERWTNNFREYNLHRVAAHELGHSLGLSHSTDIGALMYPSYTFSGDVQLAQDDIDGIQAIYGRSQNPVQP
Description: Matrix Metalloprotease Inhibition Protocol, collagenase-1. In kind it is biochemical. As to conditions: fluorogenic substrate, pH 7.6; IC50 equivalent to Ki at [S]<<Km. On the procedure:
(§1) A. Matrix Metalloprotease Inhibition Protocol
(§2) Assays are conducted in a total volume of 0.180 mL assay buffer (200 mM NaCl, 50 mM Tris, 5 mM CaCl2, 10 μM ZnSO4, 0.005% Brij 35, pH 7.6) in each well of a black 96 well microtiter plate. 19 kD collagenase-1, 20 kD collagenase-3, stromelysin-1,and 50 kD gelatinase B concentrations are adjusted to 500 pM, 30 pM, 5 nM, and 100 pM, respectively. A dose response is generated using an eleven-point, 3-fold serial dilution with initial starting test compound concentrations of 100, 10, or 1 μM. Inhibitor and enzyme reactions are incubated for 30 minutes at ambient temperature and then initiated with 10 μM fluorogenic substrate (above). The product formation is measured at Excitation343 /Emission450 nm after 45-180 minutes using a Fluostar SLT fluorescence analyzer. Percent inhibition is calculated at each inhibitor concentration and the data were plotted using standard curve fitting programs. IC50 values were determined from these curves. Assays were run at low substrate concentration ([S]<<Km) such that the calculated IC50 values are equivalent to Ki within experimental error.

The target in assay [2] is T2, TNFα converting enzyme (Homo sapiens, UniProt P78536).
T2 construct: Membrane preparation from MonoMac 6 cells; endogenous in cells; host or cells: MonoMac 6 cells (membrane preparation, subfractionated extract)
Description: TNFα Converting Enzyme Inhibition Protocol. In kind it is biochemical. As to conditions: cell-free, MonoMac 6 membrane preparation; IC50 equivalent to Ki at [S]<<Km. On the procedure:
B. TNFα Converting Enzyme Inhibition Protocol
The reaction is quenched by addition of streptavidin SPA beads (Amersham RPNQ0006), with excess binding capacity relative to substrate, suspended in 250 mM EDTA, pH 8.0. Binding is complete within 15 minutes and plates are counted in a Wallac 1450 Microbeta liquid scintillation counter. Percent inhibition is calculated at each inhibitor concentration and the data were plotted using standard curve fitting programs. IC50 values were determined from these curves.

For assay [3], the target named is 20 kD truncated collagenase-3 (MMP-13). Description: Matrix Metalloprotease Inhibition Protocol, collagenase-3. In kind it is biochemical. To be noted: fluorogenic substrate, pH 7.6; IC50 equivalent to Ki at [S]<<Km. On the procedure:
as §1
as §2, with “curves.” for “curves. Assays were run at low substrate concentration ([S]<<Km) such that the calculated IC50 values are equivalent to Ki within experimental error.”

Assay [4] addresses stromelysin-1 (MMP-3) (Homo sapiens, UniProt P08254). Description: Matrix Metalloprotease Inhibition Protocol, stromelysin-1. The assay is classed as biochemical. To be noted: fluorogenic substrate, pH 7.6; IC50 equivalent to Ki at [S]<<Km. On the procedure: as §1, §2
Assay [5] concerns the target 50 kD truncated gelatinase B (MMP-9). As to the kind of experiment: Matrix Metalloprotease Inhibition Protocol, gelatinase B. In kind it is biochemical. As to conditions: fluorogenic substrate, pH 7.6; IC50 equivalent to Ki at [S]<<Km. On the procedure: as §1
as §2, with “curves.” for “curves. Assays were run at low substrate concentration ([S]<<Km) such that the calculated IC50 values are equivalent to Ki within experimental error.”

In assay [6] the test system is TNFα release from MonoMac 6 cells. As to the kind of experiment: Cell-Based TNFα Release Inhibition Protocol. To be noted: Homo sapiens, MONO-MAC-6; LPS/PMA-stimulated MonoMac 6 cells, 37° C., 2 hours. On the procedure: C. Cell-Based TNFα Release Inhibition Protocol
This solution is then diluted 1:1000 (40 ng/mL and 120 ng/mL) for use later in the assay. Compounds (10 mM) are serially diluted 1:3 in DMSO. Compound dilutions (20 μL) are added to a sterile round bottom 96 well plate (20 μL:200 μL total volume=1:10 for final concentrations of 50 μM for test compounds). MonoMac 6 cell suspension (130 μL, 1.5×10^6 cells/mL) is then added to each well resulting in 2×10^5 cells/well. LPS/PMA (50 μL) solution is then added to each well to begin stimulation (final concentrations of 10 ng/mL and 30 ng/mL respectively). The plate is incubated at 37° C. for 2 hours then spun at 1,500 rpm for 3 minutes to pellet cells. The supernatant (120 μL/well) is removed to a new round bottom 96 well plate and diluted 1:10 in PBS. Then, 20 μL of the supernatant is transferred to a Cistron TNFα ELISA plate and processed according to the manufacturer's instructions to quantitate levels of TNFα. Percent inhibition of TNFα release is calculated at each inhibitor concentration and the data were plotted using standard curve fitting programs. IC50 values were determined from these curves.

T2 sequence (P78536 215-824): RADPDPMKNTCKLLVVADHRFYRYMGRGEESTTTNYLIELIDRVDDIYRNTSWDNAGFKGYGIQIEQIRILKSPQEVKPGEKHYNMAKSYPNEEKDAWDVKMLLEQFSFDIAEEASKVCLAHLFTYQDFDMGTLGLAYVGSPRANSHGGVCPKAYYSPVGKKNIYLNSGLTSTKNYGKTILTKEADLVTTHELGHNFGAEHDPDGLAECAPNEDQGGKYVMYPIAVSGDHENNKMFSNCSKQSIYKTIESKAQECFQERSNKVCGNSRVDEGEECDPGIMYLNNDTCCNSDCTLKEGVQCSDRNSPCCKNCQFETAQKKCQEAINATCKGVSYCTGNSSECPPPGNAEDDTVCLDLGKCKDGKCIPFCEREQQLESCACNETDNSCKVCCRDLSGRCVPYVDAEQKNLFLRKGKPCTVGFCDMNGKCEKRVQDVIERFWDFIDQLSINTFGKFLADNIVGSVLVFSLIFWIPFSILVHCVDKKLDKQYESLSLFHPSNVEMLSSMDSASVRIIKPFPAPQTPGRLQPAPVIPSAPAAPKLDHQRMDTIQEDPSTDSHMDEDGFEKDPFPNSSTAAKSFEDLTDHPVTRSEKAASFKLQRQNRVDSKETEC
Chain of stromelysin-1 (MMP-3) (P08254 100-477): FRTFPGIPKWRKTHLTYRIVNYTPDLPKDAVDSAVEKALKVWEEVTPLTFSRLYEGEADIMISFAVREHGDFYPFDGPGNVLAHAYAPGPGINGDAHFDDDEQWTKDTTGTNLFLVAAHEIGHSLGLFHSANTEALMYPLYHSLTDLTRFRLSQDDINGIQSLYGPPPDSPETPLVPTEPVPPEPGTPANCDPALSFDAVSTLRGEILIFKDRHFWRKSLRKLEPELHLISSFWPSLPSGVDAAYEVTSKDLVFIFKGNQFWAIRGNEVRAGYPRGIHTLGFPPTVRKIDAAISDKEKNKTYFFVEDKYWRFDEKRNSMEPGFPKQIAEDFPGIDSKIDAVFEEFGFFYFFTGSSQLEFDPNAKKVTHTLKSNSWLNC

By Ki is commonly meant a measure of affinity in units of concentration, obtained from inhibition or displacement. In the case of `C[C@@H]([C@@H](CCCc1ccccc1)C(=O)N[C@H](C(=O)Nc1cccnc1)C(C)(C)C)N(O)C=O` [Example 1, (2R,3S)-3-(Formyl-hydroxyamino)-2-(3-phenyl-1-propyl)butanoic Acid [(1S)-2,2-Dimethyl-1-(pyridine-3-ylcarbamoyl)-1-propyl]amide], the inhibitory constant (Ki) was < 100 nM in assay [1]; 500 to 1000 nM in assay [2]; < 100 nM in assay [3]; < 100 nM in assay [4]; < 100 nM in assay [5].

In general, IC50 refers to the point on the concentration scale where inhibition reaches its midpoint. Low readings indicate greater potency, high ones weaker potency. In the case of `C[C@@H]([C@@H](CC1CCC(c2ccccc2)CC1)C(=O)N[C@H](C(=O)Nc1nccs1)C(C)(C)C)N(O)C=O` (stereo partly drawn) [Example 2, (2R,3S)-3-(Formyl-hydroxyamino)-2-(4-phenylcyclohexylmethyl)butanoic Acid [(1S)-2,2-Dimethyl-1-(1,3-thiazol-2-ylcarbamoyl)-1-propyl]amide], the Ki in assay [1] was 500 to 1000 nM; in assay [2], < 100 nM; in assay [3] it was < 100 nM; in assay [4] it was 100 to 500 nM; in assay [5], 100 to 500 nM. In addition, in assay [6], the IC50 is > 1000 nM.

On to `CCC[C@@H]([C@@H](CCCc1ccccc1)C(=O)N[C@@H](CCCCNC(=O)OCc1ccccc1)C(=O)Nc1nncs1)N(O)C=O` [Example 3, (2R,3S)-3-(Formyl-hydroxyamino)-2-(3-phenyl-1-propyl)hexanoic Acid [(1S)-5-Benzyloxycarbonylamino-1-(1,3,4-thiadiazol-2-yl-carbamoyl)-1-pentyl]amide], for which the Ki in assay [1] was > 1000 nM; in assay [2], < 100 nM; in assay [4] it was < 100 nM. Further, the 50% inhibitory concentration (IC50) in assay [6] is 100 to 500 nM.

Take `CCC[C@@H]([C@@H](CCCc1ccoc1)C(=O)N[C@@H](CCCCNC(=O)OCc1ccccc1)C(=O)Nc1nccs1)N(O)C=O` [Example 4, (2R,3S)-3-(Formyl-hydroxyamino)-2-(3-(3-furyl)-1-propyl)hexanoic Acid [(1S)-5-Benzyloxycarbonylamino-1-(1,3-thiazol-2-ylcarbamoyl)-1-pentyl]amide]: the inhibitory constant (Ki) in assay [1] is > 1000 nM; in assay [2], < 100 nM; in assay [3], < 100 nM; in assay [4] it was < 100 nM; in assay [5], 100 to 500 nM. Also, the IC50 in assay [6] was < 100 nM.

On to `CCC[C@@H]([C@@H](CCCc1ccoc1)C(=O)N[C@H](C(=O)Nc1nccs1)C(C)(C)C)N(O)C=O` [Example 5, (2R,3S)-3-(Formyl-hydroxyamino)-2-(3-(3-furyl)-1-propyl)hexanoic Acid [(1S)-2,2-Dimethyl-1-(1,3-thiazol-2-ylcarbamoyl)-1-propyl]amide], for which the Ki was 500 to 1000 nM in assay [1], < 100 nM in assay [3], < 100 nM in assay [4] and < 100 nM in assay [5]. The compound further displayed an IC50 in assay [6] of 100 to 500 nM.

In the case of `CCC[C@@H]([C@@H](CC(C)Cc1ccccc1)C(=O)N[C@@H](CCCCNC(=O)OCc1ccccc1)C(=O)Nc1nccs1)N(O)C=O` (stereo partly drawn) [Example 9, (2R,3S)-3-(Formyl-hydroxyamino)-2-(3-phenyl-2-methyl-1-propyl)hexanoic Acid [(1S)-5-Benzyloxycarbonylamino-1-(1,3-thiazol-2-ylcarbamoyl)-1-pentyl]amide], the Ki in assay [1] was > 1000 nM; in assay [3] it was 500 to 1000 nM; in assay [4] it was > 1000 nM; in assay [5] it was > 1000 nM. The compound further displayed an IC50 in assay [6] of 100 to 500 nM.

In the case of `C[C@@H]([C@@H](CCCc1ccc(Cl)cc1)C(=O)N[C@H](C(=O)Nc1cccnc1)C(C)(C)C)N(O)C=O` [Example 195, (2R,3S)-3-(Formyl-hydroxyamino)-2-(3-(4-chlorophenyl)-1-propyl)butanoic Acid [(1S)-2,2-Dimethyl-1-(pyridine-3-ylcarbamoyl)-1-propyl]amide], the Ki was < 100 nM in assay [1]; > 1000 nM in assay [2]; < 100 nM in assay [3]; < 100 nM in assay [4]; < 100 nM in assay [5].
